“And” between values parts separate entries of the source, which are not always exact repeats. Equal entries are not always repeated.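 Interpolation was linear, between the two tested concentrations surrounding the appropriate level; five concentrations were tested over 48 hours in 96-well plates. The concentration for 50% growth inhibition is given as GI50. TGI marks complete inhibition of growth.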
Experiments:
Test in all cases: NCI-60 cell line screen, 48 h
CCRF-CEM leukemia = test system: CCRF-CEM leukemia
COLO 205 colon = test system: COLO 205 colon
EKVX NSCLC = test system: EKVX NSCLC
HOP-92 NSCLC = test system: HOP-92 NSCLC
MOLT-4 leukemia = test system: MOLT-4 leukemia
OVCAR-4 ovarian = test system: OVCAR-4 ovarian
OVCAR-5 ovarian = test system: OVCAR-5 ovarian
SK-MEL-28 melanoma = test system: SK-MEL-28 melanoma
UACC-257 melanoma = test system: UACC-257 melanoma
TK-10 renal = test system: TK-10 renal

O=c1c(-c2ccccc2)c[nH]c2cc([N+](=O)[O-])c(/C(Cl)=C/c3ccccc3)cc12
TGI (CCRF-CEM leukemia): 20.3 µM | TGI (COLO 205 colon): > 38.2 µM | TGI (EKVX NSCLC): 18.6 µM | TGI (HOP-92 NSCLC): 10.6 µM | TGI (MOLT-4 leukemia): 24 µM | TGI (OVCAR-4 ovarian): 8.64 µM | TGI (OVCAR-5 ovarian): > 59.5 µM | TGI (SK-MEL-28 melanoma): > 55.1 µM | TGI (UACC-257 melanoma): 97.3 µM

C[Si](C)(C)C#C[I+]c1ccccc1
TGI (CCRF-CEM leukemia): 75.8 µM | TGI (COLO 205 colon): 32.9 µM | TGI (EKVX NSCLC): > 100 µM | TGI (HOP-92 NSCLC): > 100 µM | TGI (MOLT-4 leukemia): > 100 µM | TGI (OVCAR-4 ovarian): > 100 µM | TGI (OVCAR-5 ovarian): > 100 µM | TGI (SK-MEL-28 melanoma): > 100 µM | TGI (TK-10 renal): > 100 µM | TGI (UACC-257 melanoma): > 100 µM

COc1cc(-c2ccc(-c3ccc(C(=N)N)s3)s2)cc(OC)c1OC
GI50 (CCRF-CEM leukemia): 3.42 µM | TGI (CCRF-CEM leukemia): 10.4 µM | GI50 (EKVX NSCLC): 1.92 µM | TGI (EKVX NSCLC): 4.85 µM | GI50 (MOLT-4 leukemia): 2.4 µM | TGI (MOLT-4 leukemia): 5 µM | GI50 (OVCAR-4 ovarian): 1.82 µM | TGI (OVCAR-4 ovarian): 3.95 µM | GI50 (OVCAR-5 ovarian): 1.47 µM | TGI (OVCAR-5 ovarian): 3.25 µM | GI50 (TK-10 renal): 2.7 µM | TGI (TK-10 renal): 7.34 µM | GI50 (UACC-257 melanoma): 2.22 µM | TGI (UACC-257 melanoma): 4.02 µM

O=C(CCN1CCCC1)Nc1ccc2c(NCCCCc3ccccc3)c3ccccc3nc2c1
GI50 (COLO 205 colon): 0.453 µM | TGI (COLO 205 colon): 1.87 µM | GI50 (EKVX NSCLC): 1.39 µM | TGI (EKVX NSCLC): 2.73 µM | GI50 (HOP-92 NSCLC): 1.06 µM | TGI (HOP-92 NSCLC): 2.32 µM | GI50 (OVCAR-4 ovarian): 1.12 µM | TGI (OVCAR-4 ovarian): 2.52 µM | GI50 (OVCAR-5 ovarian): 1.38 µM | TGI (OVCAR-5 ovarian): 2.71 µM | GI50 (SK-MEL-28 melanoma): 1.8 µM | TGI (SK-MEL-28 melanoma): 3.24 µM | GI50 (TK-10 renal): 1.4 µM | TGI (TK-10 renal): 2.86 µM | GI50 (UACC-257 melanoma): 1.8 µM | TGI (UACC-257 melanoma): 3.5 µM

Cc1c2cc[n+](C)cc2c(C)c2c1[nH]c1ccc(O)cc12
TGI (CCRF-CEM leukemia): > 92.6 µM | TGI (COLO 205 colon): > 91.9 µM | TGI (EKVX NSCLC): 83.4 µM | TGI (HOP-92 NSCLC): 52.4 µM | TGI (MOLT-4 leukemia): 58.3 µM | TGI (OVCAR-4 ovarian): > 100 µM | TGI (OVCAR-5 ovarian): > 100 µM | TGI (SK-MEL-28 melanoma): 66 µM | TGI (TK-10 renal): > 100 µM | TGI (UACC-257 melanoma): > 90.6 µM

CCOC(=O)c1c(NC(=S)NCc2ccccc2)sc2c1CCN(C)C2
TGI (CCRF-CEM leukemia): 40.3 µM | TGI (COLO 205 colon): > 100 µM | TGI (EKVX NSCLC): > 100 µM | TGI (MOLT-4 leukemia): 51 µM | TGI (OVCAR-5 ovarian): > 100 µM | TGI (TK-10 renal): > 100 µM | TGI (UACC-257 melanoma): > 100 µM

Cc1c2cc[n+](C)cc2c(COC2OC(CO)C(O)C2O)c2c3ccccc3n(C)c12 (stereo not drawn)
TGI (CCRF-CEM leukemia): > 100 µM | TGI (COLO 205 colon): > 100 µM | TGI (EKVX NSCLC): > 100 µM | TGI (HOP-92 NSCLC): > 100 µM | TGI (MOLT-4 leukemia): > 100 µM | TGI (OVCAR-4 ovarian): > 100 µM | TGI (OVCAR-5 ovarian): > 100 µM | TGI (SK-MEL-28 melanoma): > 100 µM | TGI (UACC-257 melanoma): > 100 µM

COc1cc2c(cc1-c1c(C)noc1C)ncc1nc(C3CCCCC3)n(C3CCC(OC(F)F)CC3)c12 (stereo not drawn)
GI50 (EKVX NSCLC): 2.31 µM | TGI (EKVX NSCLC): > 100 µM | GI50 (HOP-92 NSCLC): 1.53 µM | TGI (HOP-92 NSCLC): 4.62 µM | GI50 (OVCAR-4 ovarian): 2.17 µM | TGI (OVCAR-4 ovarian): > 100 µM | GI50 (OVCAR-5 ovarian): 3 µM | TGI (OVCAR-5 ovarian): > 100 µM | GI50 (SK-MEL-28 melanoma): 1.67 µM | TGI (SK-MEL-28 melanoma): > 100 µM

NC(=O)c1cc2ccccc2c(N=Nc2ccccc2)c1O
TGI (CCRF-CEM leukemia): > 100 µM | TGI (COLO 205 colon): > 100 µM | TGI (EKVX NSCLC): > 100 µM | TGI (HOP-92 NSCLC): > 100 µM | TGI (MOLT-4 leukemia): > 100 µM | TGI (OVCAR-4 ovarian): > 100 µM | TGI (OVCAR-5 ovarian): > 100 µM | TGI (SK-MEL-28 melanoma): > 100 µM | TGI (TK-10 renal): > 100 µM | TGI (UACC-257 melanoma): > 100 µM

CC(=O)OC1CC2(O)C(CCC3(C)C(c4ccc(=O)oc4)CCC32O)C2(C)CCC(O)C=C12 (stereo not drawn)
GI50 (CCRF-CEM leukemia): 0.00387 µM and 0.0375 µM | TGI (CCRF-CEM leukemia): 0.0519 µM and 0.0405 µM | TGI (COLO 205 colon): 0.168 µM and 0.139 µM | GI50 (EKVX NSCLC): 0.0375 µM | TGI (EKVX NSCLC): 0.123 µM and 0.0477 µM | GI50 (HOP-92 NSCLC): 0.0375 µM | TGI (HOP-92 NSCLC): 0.374 µM and 0.0869 µM | TGI (MOLT-4 leukemia): 0.0054 µM | GI50 (OVCAR-4 ovarian): 0.0375 µM | TGI (OVCAR-4 ovarian): 0.0686 µM and 0.0495 µM | GI50 (OVCAR-5 ovarian): 0.0738 µM | TGI (OVCAR-5 ovarian): 0.277 µM and 0.26 µM | TGI (SK-MEL-28 melanoma): 0.289 µM and 0.171 µM | GI50 (UACC-257 melanoma): 0.0375 µM | TGI (UACC-257 melanoma): 0.105 µM and 0.823 µM

N#Cc1ccc(Nc2nc3nc[nH]c3c(=O)[nH]2)cc1
TGI (CCRF-CEM leukemia): > 100 µM | TGI (COLO 205 colon): > 100 µM | TGI (EKVX NSCLC): > 100 µM | TGI (HOP-92 NSCLC): > 100 µM | TGI (MOLT-4 leukemia): > 100 µM | TGI (OVCAR-4 ovarian): > 100 µM | TGI (OVCAR-5 ovarian): > 100 µM | TGI (SK-MEL-28 melanoma): > 100 µM | TGI (TK-10 renal): > 100 µM | TGI (UACC-257 melanoma): > 100 µM

CC(=O)O[C@H]1C(=O)[C@]2(C)[C@@H](OC(=O)OCC(O)CO)C[C@H]3OC[C@@]3(OC(C)=O)[C@H]2[C@H](OC(=O)c2ccccc2)[C@]2(O)C[C@H](OC(=O)[C@H](O)[C@@H](NC(=O)c3ccccc3)c3ccccc3)C(C)=C1C2(C)C (stereo partly drawn)
TGI (CCRF-CEM leukemia): 31 µM | TGI (COLO 205 colon): 0.683 µM | TGI (EKVX NSCLC): > 100 µM | TGI (HOP-92 NSCLC): > 85.3 µM | TGI (MOLT-4 leukemia): 31.3 µM | TGI (OVCAR-4 ovarian): > 83.9 µM | TGI (OVCAR-5 ovarian): 20.9 µM | TGI (SK-MEL-28 melanoma): 39.1 µM | TGI (TK-10 renal): 70.8 µM | TGI (UACC-257 melanoma): 22.2 µM

COc1cccc2c1C(=O)c1c(O)c3c(c(O)c1C2=O)C[C@@](O)(C(C)=O)C[C@@H]3OC1CC(N)C(O)C(C)O1 (stereo partly drawn)
TGI (COLO 205 colon): 1.28 µM [middle of 6 runs] | GI50 (EKVX NSCLC): 0.266 µM | GI50 (HOP-92 NSCLC): < 0.0104 µM | GI50 (OVCAR-4 ovarian): 0.0643 µM | GI50 (TK-10 renal): 0.144 µM | GI50 (UACC-257 melanoma): 0.0685 µM

CN1CCN(c2ccc3nc(-c4ccc(OCCCN5C(=O)c6cccc7cccc(c67)C5=O)cc4)[nH]c3c2)CC1
GI50 (CCRF-CEM leukemia): 2.62 µM | TGI (CCRF-CEM leukemia): 7.48 µM | GI50 (COLO 205 colon): 4.53 µM | TGI (COLO 205 colon): > 100 µM | GI50 (HOP-92 NSCLC): 1.66 µM | TGI (HOP-92 NSCLC): 3.29 µM | GI50 (MOLT-4 leukemia): 2.06 µM | TGI (MOLT-4 leukemia): 5.05 µM | GI50 (OVCAR-5 ovarian): 1.89 µM | TGI (OVCAR-5 ovarian): 3.38 µM | GI50 (TK-10 renal): 8.54 µM | TGI (TK-10 renal): > 71.2 µM | GI50 (UACC-257 melanoma): 24.8 µM | TGI (UACC-257 melanoma): 51.8 µM

CCP(=O)(CC)C(Cl)(Cl)C(=O)NC
TGI (CCRF-CEM leukemia): > 100 µM | TGI (COLO 205 colon): > 100 µM | TGI (HOP-92 NSCLC): > 100 µM | TGI (MOLT-4 leukemia): > 100 µM | TGI (OVCAR-4 ovarian): > 100 µM | TGI (OVCAR-5 ovarian): > 100 µM | TGI (SK-MEL-28 melanoma): > 100 µM | TGI (TK-10 renal): > 100 µM | TGI (UACC-257 melanoma): > 100 µM

CC(C)(C)CC(C)(C)Cc1ccc(OCCOCC[N+](C)(C)Cc2ccccc2)cc1
GI50 (CCRF-CEM leukemia): 1.31 µM | TGI (CCRF-CEM leukemia): 3.72 µM | GI50 (HOP-92 NSCLC): 1.23 µM | TGI (HOP-92 NSCLC): 2.56 µM | GI50 (OVCAR-4 ovarian): 0.681 µM | TGI (OVCAR-4 ovarian): 3.94 µM | GI50 (OVCAR-5 ovarian): 3.86 µM | TGI (OVCAR-5 ovarian): 15.8 µM | GI50 (SK-MEL-28 melanoma): 1.56 µM | TGI (SK-MEL-28 melanoma): 3.08 µM | GI50 (TK-10 renal): 2.83 µM | TGI (TK-10 renal): 12.7 µM | GI50 (UACC-257 melanoma): 1.51 µM | TGI (UACC-257 melanoma): 3.18 µM
